Assays:
[1] = in vivo; details: mouse, po
[2] = animal or person; assay type: in vivo; details: Rattus norvegicus, po, read-out: ED50, anti-apomorphine effect

Row | Structure (SMILES) | LD50 [1] [mg/kg] | ED50 [2] [mg/kg]
1 | Cl.OC1(c2ccc(Cl)c(C(F)(F)F)c2)CCN(C2CCC(c3ccc(F)cc3)(c3ccc(F)cc3)CC2)CC1 [Test Compound A, 1-[4,4-bis(p-fluorophenyl)cyclohexyl]-4-(4-chloro-3-trifluoromethylphenyl)-4-piperidinol hydrochloride] | ≥ 464 | 2.46
2 | O=C1NCN(c2ccc(F)cc2)C12CCN(C1CCC(c3ccc(F)cc3)(c3ccc(F)cc3)CC1)CC2 [Test Compound B, 8-[4,4-bis(p-fluorophenyl)cyclohexyl]-1-(p-fluorophenyl)-1,3,8-triazaspiro[4.5]decan-4-one] |  | 0.1
3 | O=C1NCN(c2ccc(Cl)cc2)C12CCN(C1CCC(c3ccc(F)cc3)(c3ccc(F)cc3)CC1)CC2 [Test Compound E, 8-[4,4-bis(p-fluorophenyl)cyclohexyl]-1-(p-chlorophenyl)-1,3,8-triazaspiro[4.5]decan-4-one] | ≥ 464 | 0.28
4 | O=C(CCCN1CCC(O)(c2ccc(Cl)cc2)CC1)c1ccc(F)cc1 [Haloperidol, 1-[3-(p-fluorobenzoyl)propyl]-4-(p-chlorophenyl)-4-piperidinol, reference compound] | > 100 | 0.5
5 | O=c1[nH]c2ccccc2n1C1CCN(CCCC(c2ccc(F)cc2)c2ccc(F)cc2)CC1 [Pimozide, 1-[1-(4,4-bis(p-fluorophenyl)butyl)-4-piperidyl]-2-benzimidazolinone, reference compound] | > 1000 | 0.25

Reference: patent US4076821A (priority 1976, dated 1978)
